Experimental data taken from patent EP0429153A1, “Novel agroclavine and elymoclavine derivatives, processes for their preparation and their use in medicinal preparations” (SCHERING AKTIENGESELLSCHAFT, priority 1989, dated 1991).

Test system: männliche Wistar-Ratten
Assay: Induction of stereotypies in rats, automatic registration (method of Horowski)
Type: in vivo
Details: intraperitoneal, 60 minutes, n = 12
Source text: Die dopaminagonistische Wirkung wurde mit Hilfe der von Horowski beschriebenen Methode der automatischen Registrierung von Stereotypien an Ratten bestimmt (Arzneim. Forsch. 12, 2281-2286, 1978): Unmittelbar nach intraperitonealer Prüfsubstanz- bzw. Vehikelverabreichung werden männliche Wistar-Ratten (90-120 g) einzeln in Zwangskäfige aus Acrylglas gesetzt. Uber ein vor dem Kopf der Tiere angebrachtes elektrodynamisches Aufnahmesystem wird die Zahl der Kontakte an einem stählernen Becher mit einem zentralen Metallstab als Folge der stereotypen Kau-, Leck- und Nagebewegungen während 60 Minuten registriert. Die Mittelwerte ± S.E.M. der Anzahl der Kontakte während 60 Minuten für die verschiedenen Behandlungsgruppen, die mit jeweils 12 Tieren besetzt sind, werden berechnet und die Signifikanz der Unterschiede zwischen den Mittelwerten der verschiedenen Prüfsubstanzdosen im Vergleich zur Vehikel-behandelten Kontrollgruppe mit Hilfe der einfachen Varianzanalyse in Verbindung mit dem Dunnett-Test ermittelt.

[1] = Prüfsubstanzdosis 0.025 (dose unit not given)
[2] = Prüfsubstanzdosis 0.1 (dose unit not given)
[3] = Prüfsubstanzdosis 0.39 (dose unit not given)
[4] = Prüfsubstanzdosis 1.56 (dose unit not given)

Compound	Stereotypien (counts pro 60 Minuten) Mittelwert ± S.F.M.) [1]	Stereotypien (counts pro 60 Minuten) Mittelwert ± S.F.M.) [2]	Stereotypien (counts pro 60 Minuten) Mittelwert ± S.F.M.) [3]	Stereotypien (counts pro 60 Minuten) Mittelwert ± S.F.M.) [4]	Stereotypien (counts pro 60 Minuten) Mittelwert ± S.F.M.) (Prüfsubstanzdosis 6.25 (dose unit not given))
CCCN1CC(C)=C[C@@H]2c3cccc4[nH]c(C)c(c34)C[C@H]21 [CH3 / CH2CH2CH3]	4726 ± 1148xx counts pro 60 Minuten	7601 ± 1182xx counts pro 60 Minuten	9200 ± 672xx counts pro 60 Minuten	10150 ± 598xx counts pro 60 Minuten	–
CCCN1CC(C)=C[C@@H]2c3cccc4[nH]c(Cl)c(c34)C[C@H]21 [Cl / CH2CH2CH3]	2091 ± 394 counts pro 60 Minuten	6470 ± 1018xx counts pro 60 Minuten	7364 ± 927xx counts pro 60 Minuten	8837 ± 699xx counts pro 60 Minuten	10397 ± 1126xx counts pro 60 Minuten
